Read-outs that look alike come from different tables or passages of the source. Square brackets hold non-standard residues; d marks the D form. Peptide text beside a SMILES is read from it. * marks the point of attachment. Asp(3,3-(CH2)4) = N[C@H](C(=O)O)C1(C(=O)O)CCCC1; Leu(γ-Me)ol = CC(C)(C)C[C@@H](CO)N*; Hydrocinnamoyl = O=C(CCc1ccccc1)*; Tle = CC(C)(C)[C@H](N)C(=O)O; NMeV = CN[C@H](C(=O)O)C(C)C; Pyrrolidide = C1CCN(*)C1
Legend:
HSV-2 = assay: microbe, parasite or virus in culture; type: cell-based, HSV-2 (strain HG-52)
Experimental: BHK-21/C13 cells (ATCC CCL 10) are incubated for two days in 150 cm^2 T-flasks (1.5×10^6 cells/flask) with alpha-MEM medium (Gibco Canada Inc., Burlington, Ontario, Canada) supplemented with 8% (v/v) fetal bovine serum (FBS, Gibco Canada Inc.). The cells are trypsinized and then transferred to fresh media in a 24 well plate to give 2.5×10^5 cells in 750 μL of media per well. The cells are incubated at 37° C. for a period of 6 hours to allow them to adhere to the plate. Thereafter, the cells are washed once with 500 μL of alpha-MEM supplemented with 0.5% (v/v) FBS and then incubated with 750 μL of the same media (low serum) for 3 days. After this period of serum starvation, the low serum medium is removed and the cells are incubated in 500 μL of BBMT for 2 to 3 hours. [BBMT medium is described by P. Brazeau et al., Proc. Natl. Acad. Sci. USA, 79, 7909 (1982).] Thereafter, the cells are infected with HSV-2 (multiplicity of infection=0.02 PFU/cell) in 100 μL of BBMT medium. (Note: The HSV-2 used was strain HG-52, see Y. Langelier and G. Buttin, J. Gen. Virol., 57, 21 (1981); the virus was stored at -80° C.) Following 1 hour of virus adsorption at 37° C., the media is removed and the cells are washed with BBMT (3×250 μL). The cells in each well are incubated with or without (control) appropriate concentrations of the test agent dissolved in 200 μL of BBMT medium. After 29 hours of incubation at 37° C., the infected cells are harvested by first freezing the plate at -80° C., followed by thawing. The cells in each well are scraped off the surface of the well with the help of the melting ice fragments. After complete thawing, the cell suspensions are collected and each well is rinsed with 150 μL of BBMT medium. The viral sample (suspension plus washing) is sonicated gently for 4 minutes at 4° C. Cell debris are removed by centrifugation (1000 times gravity for 10 minutes at 4° C.). The supernatant is collected and stored at -80° C. until determination of viral titer.
Viral titration was performed by a modification of the colorimetric assay method of M. Langlois et al., Journal of Biological Standardization, 14, 201 (1986).
More specifically, in a similar manner as described above, BHK-21/C13 cells are trypsinized and transferred to fresh media in a 96 well microtiter plate to give 20,000 cells in 100 μL of media per well. The cells in the prepared plate are incubated at 37° C. for 2 hours. During that time, the viral sample is thawed and sonicated gently for 15 seconds, and log dilutions of the sample are prepared (1/5 sequential: 50 μL of the sample plus 200 μL of BBMT medium, sequential dilutions being done with a multichannel pipette.
On completion of the above 2 hour incubation of the BHK-21/C13 cells, the media is replaced with alpha-MEM medium supplemented with 3% (v/v) FBS. The cells are now ready to be infected with the various sample dilutions of virus. Aliquots (50 μL) of the various dilutions are transferred into the appropriate wells of the plate. The resulting infected cells are incubated for 2 days at 37° C. Then 50 μL of a 0.15% (v/v) solution of neutral red dye in Hank's Balanced Salt Solution (pH 7.3, Gibco Canada Inc.) is added to each well. The prepared plate is incubated for 45 minutes at 37° C. Medium from each well is then aspirated and the cells are washed once with 200 μL of Hank's Balanced Salt Solution. After the wash, the dye is released from the cells by the addition of 100 μL of a 1:1 mixture of 0.1M Sorensen's citrate buffer (pH 4.2) and ethanol. [Sorensen's citrate buffer is prepared as follows: Firstly, a 0.1M disodium citrate solution is prepared by dissolving citric acid monohydrate (21 g) in 1N aqueous NaOH (200 mL) and adding sufficient filtered H2 O to make 1 L. Secondly, the 0.1M disodium citrate solution (61.2 mL) is mixed with 0.1N aqueous HCl (38.8 mL) and the pH of the resulting solution is adjusted to 4.2 if necessary.] […]

[1] = in vivo; cited from earlier work

Compound | IC50 (HSV-2; Human alphaherpesvirus 2, BHK21 (C13), 29 h, agent alone, HSV-2 in BHK-21/C13 cells, 29 hours incubation, read-out: IC50, concentration causing 50% inhibition of virus replication) [nM] | IC50 (HSV-2; Human alphaherpesvirus 2, BHK21 (C13), +20 μM of peptide, HSV-2 in BHK-21/C13 cells, read-out: IC50 of acyclovir) [nM] | IC50 (HSV-2; Human alphaherpesvirus 2, BHK21 (C13), +30 μM of peptide, HSV-2 in BHK-21/C13 cells, read-out: IC50 of acyclovir) [nM] | IC50 (HSV-2; Human alphaherpesvirus 2, BHK21 (C13), +40 μM of peptide, HSV-2 in BHK-21/C13 cells, read-out: IC50 of acyclovir) [nM] | IC50 (HSV-2; Human alphaherpesvirus 2, BHK21 (C13), +50 μM of peptide, HSV-2 in BHK-21/C13 cells, read-out: IC50 of acyclovir) [nM] | side effects [1] | IC50 (HSV-2; 29 h) [nM]
Nc1nc2c(ncn2COCCO)c(=O)[nH]1 [acyclovir, 9-[(2-hydroxyethoxy)methyl]guanine] | 1800 | 700 | 500 | 110 | 90 | skin rashes and renal impairment | 
CC(C)[C@@H](C(=O)N[C@H](C(=O)N[C@@H](CC(=O)N1CCCC1)C(=O)N[C@H](C(=O)N[C@H](CO)CC(C)(C)C)C1(C(=O)O)CCCC1)C(C)(C)C)N(C)C(=O)CCc1ccccc1 [peptide, PhCH2 CH2 CO--N-Me-Val-Tbg-Asp(pyrrolidino)-Asp(cyPn)-{(S)-NHCH[CH2 C(CH3)3 ]CH2 OH}] (Hydrocinnamoyl-[NMeV][Tle]D(Pyrrolidide)[Asp(3,3-(CH2)4)]-{Leu(γ-Me)ol}) |  |  |  |  |  |  | 80000

— patent US5552384A, “Antiherpes compositions and method of use” (priority 1990, dated 1996)
